Test results as given in patent US20240239786A1, “COMPOSITIONS AND METHODS FOR THE TREATMENT AND PREVENTION OF CANCER” (Yale University, priority 2021, published 2024).

What was measured:
[1] = system: RNR; assay: dNTP measurement (HIV-1 RT-based dNTP assay) in PEO4 cells; assay type: cell-based; details: 50 μM DB4 or 1 μM triapine, 24 hr
Experimental: FIG. 2, comprising FIG. 2A through FIG. 2F, depicts representative results of follow-up assays of in silico hit compounds in PEO1 and PEO4 cells. FIG. 2A depicts representative results of cytotoxicity assays on selected 25 in silico hit compounds in PEO1 and PEO4 cells. Cells were plated for 24 hr and then treated with 50 μM compounds for 72 hr. For a positive control, cells were treated with 1 μM triapine for 72 hr. The percentage of cell survival was determined by the MTS cytotoxicity assay. […] Cells were treated with 50 μM compounds or 1 μM triapine for 24 hr. During the last hour, cells were pulse-labeled with EdU, stained with the Click-iT EdU Alexa Fluor 488 Assay Kit, counterstained with 7-AAD, and subsequently analyzed by flow cytometry. EdU-positive cells were gated to determine the percentage of the S phase cell population. […] During the last hour, cells were pulse-labeled with EdU, stained with the Click-iT EdU Alexa Fluor 488 Assay Kit, counterstained with 7-AAD, and subsequently analyzed by flow cytometry. […] The percentages of DNA synthesis in cells treated with each of 10 compounds and triapine relative to the DMSO-treated control is calculated and shown. […] Cells were extracted with 65% methanol for determination of each of dNTPs expressed as pmole/10^6 cells. […] The percentage of cell survival was determined by the MTS cytotoxicity assay. […]

[2] = system: PEO4ip xenografts; assay: Survival of mice bearing peritoneal PEO4ip xenografts; assay type: in vivo, SCID-Beige mice; details: for effect on survival time of mice: olaparib 50 mg/kg, DB4 10 mg/kg, i.p. daily for 4 weeks
Experimental: SCID-Beige mice implanted ip with PEO4ip cells were treated daily (qd) with DB4 (10 mg/kg), olaparib (50 mg/kg), and the DB4-olaparib combination for 4 weeks. Kaplan Meier analysis was performed to determine the survival time of mice following treatments. Statistical significance was determined by the Mantel-Cox test comparing the control with each treatment group (N=4-5). […] DB4 given every two days (q2d) in the DB4-olaparib combination for 4 or 6 weeks (n=4-5). […] NOD CRISPR Prkdc Il2r Gamma (NCG) mice implanted sc with SKOV3 cells were treated as described in FIG. 10C for 4 weeks during which the tumor size was measured. Statistical significance was determined by the Wilcoxon matched-pairs signed test comparing the control with each treatment group and comparing between treatment groups. Data are means±SE (N=4-5). *, p<0.05; **, p<0.01.
First, the efficacy of the combination of DB4 and olaparib to treat PEO4ip tumor xenografts, as determined by the median survival time, was evaluated in a peritoneal mouse model (Lin Z P et al., 2018, PLOS One, 13:e0207399). Mice were implanted intraperitoneally (i.p.) with PEO4ip cells and then treated i.p. with olaparib, DB4, or both drugs in combination daily for 4 weeks. The survival endpoint (a 50% increase in abdominal circumference) for vehicle-treated control mice ranged from 55-65 days (8-9 weeks).
Next, these experiments were repeated with modified treatment schedules of DB4 given every two day (q2d) for 4-week and 6-week treatment periods.
Five to six weeks old female SCID-Beige mice were purchased from Envigo (Indianapolis, IN). PEO4ip cells (Lin Z P et al., 2018, PLOS One, 13:e0207399) suspended in 100 μL serum-free medium were implanted i.p. (1×10^7 cells per mouse). Six to eight weeks old female NCG (NOD-Prkdcem26Cd52Il2rgem26Cd22/NjuCrl) mice were purchased from Charles River (Wilmington, MA). SKOV3 cells suspended in 100 μL serum-free medium were mixed with 50 μL Matrigel (BD Biosciences) and implanted s.c. in the right dorsal medial area (1×10^7 cells per mouse). […] The abdominal circumference of PEO4ip-bearing mice reached a 50% increase about 50-70 days.
Mice were randomly assigned to treatment groups (n=4-5) and drug treatment was initiated 3-7 days after tumor implantation. The control group of mice received i.p. treatment with vehicle (2% DMSO) and treatment groups of mice received i.p. treatment for a period of 4 or 6 weeks as follows: Olaparib (50 mg/kg) once daily for 5 consecutive days per week; DB4 (10 mg/kg) once daily for 5 consecutive days (M, T, W, R, F) per week or once every 2 days (M, W, F) per week; The combined treatment with olaparib and DB4 at the dose and schedule described above.
The progression of PEO4ip tumor xenografts in mice was evaluated by measuring the size of the circumference at the lower one-third of the abdominal area with the mouse head positioned upward. A 50% increase in the abdominal circumference was defined as the endpoint of survival as described previously (Lin Z P et al., 2018, PLOS One, 13:e0207399). […] Kaplan-Meier survival curve, median survival time, and statistical analysis was performed using the Prism software (GraphPad). Comparisons were made by the Mantel-Cox test comparing the control with each treatment group. The growth of SKOV3 tumor xenografts was evaluated by the size of s.c. tumor using a digital caliper. Tumor volumes were calculated using the formula: length×width2/2. Statistical difference in the tumor size was determined by the Wilcoxon matched-pairs signed test comparing the control with each treatment group and comparing between treatment groups. Body weights of mice were measured on every treatment day before administration and on the same schedule as tumor measurements during the treatment period.

[3] = Table 2: olaparib 50 mg/kg qd, DB4 10 mg/kg qd, i.p., treated daily
[4] = Table 3: single agents, olaparib 50 mg/kg qd, DB4 10 mg/kg q2d

## C=CCn1c(SCc2cccc(Cl)c2)nnc1C1CCN(Cc2nc3ccccc3s2)CC1 [DB4, 2-[(4-{4-allyl-5-[(3-chlorobenzyl)thio]-4H-1,2,4-triazol-3-yl}-1-piperidinyl)methyl]-1,3-benzothiazole]
[1]
  levels of dNTPs: significant decreases in the levels of dATP, dGTP, and dTTP
[2]; [3]
  Median Survival Time: 67 days
[2]; [4]
  Median Survival Time: 56 days
[2]
  effect on survival time of mice: no effects on the survival time of mice

## O=C(c1cc(Cc2n[nH]c(=O)c3ccccc23)ccc1F)N1CCN(C(=O)C2CC2)CC1 [olaparib, reference compound]
[2]; [3]
  Median Survival Time: 66 days
[2]; [4]
  Median Survival Time: 55 days
[2]
  effect on survival time of mice: no effects on the survival time of mice

## NC(=S)NN=Cc1ncccc1N [triapine, 3-aminopyridine-2-carboxaldehyde-thiosemicarbazone, reference compound]
[1]
  levels of dNTPs: significant and pronounced decreases in the levels of dATP and dGTP while causing a marked increase in dCTP and somewhat elevated dTTP
